Patent US20240238379A1, “Compositions and Methods for the Prevention and Treatment of Stress-Induced Fear, Depressive-Like and Anxiety-Like Behavior” (The Trustees of Columbia University in the City of New York, priority 2021, published 2024)

How the values were obtained:
129S6/SvEv mice [1] = assay: Contextual fear conditioning (CFC) freezing; format: in vivo; conditions: for Freezing upon CFC re-exposure, (R,S)-ketamine versus saline: female mice, IP 10 mg/kg one week before CFC
Description: Saline, (R,S)-ketamine (10 mg/kg), or Bay 55-9837 (2.5 or 5 mg/kg) was administered 1 week prior to 3-shock contextual fear conditioning (CFC) stress in female 129S6/SvEv mice. Five days later, mice were assayed for fear, behavioral despair, locomotion, exploratory behavior, and hyponcophagia.
Male 129S6/SvEv mice were administered the same behavioral paradigm as described in Example 1. […] There was no effect of drug on immobility time during FST Day 1.
Female 129S6/SvEv mice were given a single injection of saline, (R,S)-ketamine (10 mg/kg), or Bay 55-9837 (2.5 mg/kg) 5 minutes after 3-shock CFC training.
Male 129S6/SvEv mice were administered the same behavioral paradigm as in Example 3. […] Similarly, in the NSF, Bay 55-9837, but not (R,S)-ketamine suppressed latency to feed in the OF when compared with saline controls.
Female 129S6/SEv mice were administered a single injection of saline of Bay 55-9837 (2.5 mg/kg) and placed in Piezo sleep boxes. One week later, mice were administered 3-shock CFC training or context exposure and again placed back into Piezo sleep boxes. Five days later, mice were re-exposed to the training context. […] During CFC training, there was no effect of drug. […] There was a significant effect of drug and stress as well as a drug x stress interaction.
(§1) Female 129S6/SvEv mice were administered an intracerebroventricular infusion of artificial cerebrospinal fluid, PACAP (6-38) (VPAC2 antagonist), or Bay 55-9837. Five minutes after, mice were given an IP injection of saline or (R,S)-ketamine (10 mg/kg). One week later, mice were administered 3-shock CFC training. Five days subsequently, mice were tested in CFC re-exposure and the FST. […] Upon CFC re-exposure, there was a significant group x drug interaction. […] In the PACAP (6-38) group, the prophylactic effect of (R,S)-ketamine was blocked.

129S6/SvEv mice [2] = assay: Forced swim test (FST); format: in vivo; conditions: female mice
Description: as §1, with “blocked. […]” for “blocked.”

Compound | Freezing upon CFC re-exposure, (R,S)-ketamine versus saline (129S6/SvEv mice [1]; PACAP(6-38) ICV group) | Freezing upon CFC re-exposure, (R,S)-ketamine versus saline (129S6/SvEv mice [1]; Vehicle ICV group) | Freezing during CFC re-exposure (129S6/SvEv mice [1]; male mice, same paradigm as Example 3) | Freezing during CFC training (129S6/SvEv mice [1]; male mice, same paradigm as Example 3 (single injection 5 minutes after 3-shock CFC training)) | Behavioral despair on FST Day 2 (129S6/SvEv mice [2]; 1 week prior to 3-shock CFC stress, 10 mg/kg) | Immobility time on Day 2 of the FST (129S6/SvEv mice [2]; 5 minutes after 3-shock CFC training, 10 mg/kg) | Immobility on FST Day 2 compared with Vehicle/saline (129S6/SvEv mice [2]; ICV Vehicle then IP (R,S)-ketamine 10 mg/kg) | Prophylactic effect of (R,S)-ketamine on FST Day 2 (129S6/SvEv mice [2]; ICV PACAP (6-38) then IP (R,S)-ketamine 10 mg/kg)
CNC1(c2ccccc2Cl)CCCCC1=O (racemic) [(R,S)-ketamine] | not significantly different | not significantly different | did not significantly alter | did not significantly alter | reduced | significantly reduced | significantly lower | –
PACAP (6-38) | – | – | – | – | – | – | – | blocked
